Data reported in ChEMBL document CHEMBL1201861, “Genomics of Drug Sensitity in Cancer screening data, Wellcome Trust Sanger Institute”.

Key:
Test in all cases: cells
NCI-H727 = type: functional, cell-based, Homo sapiens; conditions: Homo sapiens, NCI-H727
Description: SANGER: Inhibition of human NCI-H727 cell growth in a cell viability assay.

T-24 = type: functional, cell-based, Homo sapiens; conditions: Homo sapiens, T-24
Description: SANGER: Inhibition of human T-24 cell growth in a cell viability assay.

ETK-1 = type: functional, cell-based, Homo sapiens; conditions: Homo sapiens, ETK-1
Description: SANGER: Inhibition of human ETK-1 cell growth in a cell viability assay.

SK-PN-DW = type: functional, cell-based; conditions: Homo sapiens
Description: SANGER: Inhibition of human SK-PN-DW cell growth in a cell viability assay.

EW-1 = type: functional, cell-based, Homo sapiens; conditions: Homo sapiens, EW-1
Description: SANGER: Inhibition of human EW-1 cell growth in a cell viability assay.

SW684 = type: functional, cell-based, Homo sapiens; conditions: Homo sapiens, SW684
Description: SANGER: Inhibition of human SW684 cell growth in a cell viability assay.

RERF-LC-MS = type: functional, cell-based, Homo sapiens; conditions: Homo sapiens, RERF-LC-MS
Description: SANGER: Inhibition of human RERF-LC-MS cell growth in a cell viability assay.

NOS-1 = type: functional, cell-based, Homo sapiens; conditions: Homo sapiens, NOS-1
Description: SANGER: Inhibition of human NOS-1 cell growth in a cell viability assay.

NUGC-3 = type: functional, cell-based, Homo sapiens; conditions: Homo sapiens, NUGC-3
Description: SANGER: Inhibition of human NUGC-3 cell growth in a cell viability assay.

SW756 = type: functional, cell-based, Homo sapiens; conditions: Homo sapiens, SW756
Description: SANGER: Inhibition of human SW756 cell growth in a cell viability assay.

HuO-3N1 = type: functional, cell-based, Homo sapiens; conditions: Homo sapiens, HuO-3N1
Description: SANGER: Inhibition of human HuO-3N1 cell growth in a cell viability assay.

ACHN = type: functional, cell-based, Homo sapiens; conditions: Homo sapiens, ACHN
Description: SANGER: Inhibition of human ACHN cell growth in a cell viability assay.

CAL-54 = type: functional, cell-based, Homo sapiens; conditions: Homo sapiens, CAL-54
Description: SANGER: Inhibition of human CAL-54 cell growth in a cell viability assay.

BCPAP = type: functional, cell-based, Homo sapiens; conditions: Homo sapiens, BCPAP
Description: SANGER: Inhibition of human BCPAP cell growth in a cell viability assay.

KU-19-19 = type: functional, cell-based, Homo sapiens; conditions: Homo sapiens, KU-19-19
Description: SANGER: Inhibition of human KU-19-19 cell growth in a cell viability assay.

DEL = type: functional, cell-based; conditions: Homo sapiens
Description: SANGER: Inhibition of human DEL cell growth in a cell viability assay.

EW-18 = type: functional, cell-based; conditions: Homo sapiens
Description: SANGER: Inhibition of human EW-18 cell growth in a cell viability assay.

MKN-45 = type: functional, cell-based, Homo sapiens; conditions: Homo sapiens, MKN-45
Description: SANGER: Inhibition of human MKN45 cell growth in a cell viability assay.

NCI-H1838 = type: functional, cell-based, Homo sapiens; conditions: Homo sapiens, NCI-H1838
Description: SANGER: Inhibition of human NCI-H1838 cell growth in a cell viability assay.

S-117 = type: functional, cell-based, Homo sapiens; conditions: Homo sapiens, S-117
Description: SANGER: Inhibition of human S-117 cell growth in a cell viability assay.

HEC-1 = type: functional, cell-based, Homo sapiens; conditions: Homo sapiens, HEC-1
Description: SANGER: Inhibition of human HEC-1 cell growth in a cell viability assay.

CP50-MEL-B = type: functional, cell-based, Homo sapiens; conditions: Homo sapiens, CP50-MEL-B
Description: SANGER: Inhibition of human CP50-MEL-B cell growth in a cell viability assay.

DOK = type: functional, cell-based, Homo sapiens; conditions: Homo sapiens, DOK
Description: SANGER: Inhibition of human DOK cell growth in a cell viability assay.

EW-24 = type: functional, cell-based; conditions: Homo sapiens
Description: SANGER: Inhibition of human EW-24 cell growth in a cell viability assay.

NCI-H226 = type: functional, cell-based, Homo sapiens; conditions: Homo sapiens, NCI-H226
Description: SANGER: Inhibition of human NCI-H226 cell growth in a cell viability assay.

RKO = type: functional, cell-based, Homo sapiens; conditions: Homo sapiens, RKO
Description: SANGER: Inhibition of human RKO cell growth in a cell viability assay.

T98G = type: functional, cell-based, Homo sapiens; conditions: Homo sapiens, T98G
Description: SANGER: Inhibition of human T98G cell growth in a cell viability assay.

DOHH-2 = type: functional, cell-based; conditions: Homo sapiens
Description: SANGER: Inhibition of human DOHH-2 cell growth in a cell viability assay.

SNU-C2B = type: functional, cell-based, Homo sapiens; conditions: Homo sapiens, SNU-C2B
Description: SANGER: Inhibition of human SNU-C2B cell growth in a cell viability assay.

NCI-H510A = type: functional, cell-based; conditions: Homo sapiens
Description: SANGER: Inhibition of human NCI-H510A cell growth in a cell viability assay.

GCIY = type: functional, cell-based, Homo sapiens; conditions: Homo sapiens, GCIY
Description: SANGER: Inhibition of human GCIY cell growth in a cell viability assay.

JAR = type: functional, cell-based, Homo sapiens; conditions: Homo sapiens, JAR
Description: SANGER: Inhibition of human JAR cell growth in a cell viability assay.

L-428 = type: functional, cell-based; conditions: Homo sapiens
Description: SANGER: Inhibition of human L-428 cell growth in a cell viability assay.

SH-4 = type: functional, cell-based, Homo sapiens; conditions: Homo sapiens, SH-4
Description: SANGER: Inhibition of human SH-4 cell growth in a cell viability assay.

UACC-893 = type: functional, cell-based, Homo sapiens; conditions: Homo sapiens, UACC-893
Description: SANGER: Inhibition of human UACC-893 cell growth in a cell viability assay.

SF-539 = type: functional, cell-based, Homo sapiens; conditions: Homo sapiens, SF-539
Description: SANGER: Inhibition of human SF539 cell growth in a cell viability assay.

Daoy = type: functional, cell-based, Homo sapiens; conditions: Homo sapiens, Daoy
Description: SANGER: Inhibition of human Daoy cell growth in a cell viability assay.

SW1710 = type: functional, cell-based, Homo sapiens; conditions: Homo sapiens, SW1710
Description: SANGER: Inhibition of human SW1710 cell growth in a cell viability assay.

CAPAN-1 = type: functional, cell-based, Homo sapiens; conditions: Homo sapiens, CAPAN-1
Description: SANGER: Inhibition of human CAPAN-1 cell growth in a cell viability assay.

TE-11 = type: functional, cell-based, Homo sapiens; conditions: Homo sapiens, TE-11
Description: SANGER: Inhibition of human TE-11 cell growth in a cell viability assay.

UACC-62 = type: functional, cell-based, Homo sapiens; conditions: Homo sapiens, UACC-62
Description: SANGER: Inhibition of human UACC-62 cell growth in a cell viability assay.

SW48 = type: functional, cell-based, Homo sapiens; conditions: Homo sapiens, SW48
Description: SANGER: Inhibition of human SW48 cell growth in a cell viability assay.

LS-513 = type: functional, cell-based, Homo sapiens; conditions: Homo sapiens, LS-513
Description: SANGER: Inhibition of human LS-513 cell growth in a cell viability assay.

639-V = type: functional, cell-based, Homo sapiens; conditions: Homo sapiens, 639-V
Description: SANGER: Inhibition of human 639-V cell growth in a cell viability assay.

HLE = type: functional, cell-based, Homo sapiens; conditions: Homo sapiens, HLE
Description: SANGER: Inhibition of human HLE cell growth in a cell viability assay.

MEL-HO = type: functional, cell-based, Homo sapiens; conditions: Homo sapiens, MEL-HO
Description: SANGER: Inhibition of human MEL-HO cell growth in a cell viability assay.

SK-MEL-1 = type: functional, cell-based; conditions: Homo sapiens
Description: SANGER: Inhibition of human SK-MEL-1 cell growth in a cell viability assay.

MZ2-MEL = type: functional, cell-based, Homo sapiens; conditions: Homo sapiens, MZ2-MEL
Description: SANGER: Inhibition of human MZ2-MEL cell growth in a cell viability assay.

RMG-I = type: functional, cell-based, Homo sapiens; conditions: Homo sapiens, RMG-I
Description: SANGER: Inhibition of human RMG-I cell growth in a cell viability assay.

COLO-679 = type: functional, cell-based, Homo sapiens; conditions: Homo sapiens, COLO-679
Description: SANGER: Inhibition of human COLO-679 cell growth in a cell viability assay.

## CN(Cc1cnc2nc(N)nc(N)c2n1)c1ccc(C(=O)N[C@@H](CCC(=O)O)C(=O)O)cc1 [METHOTREXATE]
NCI-H727
  IC50: > 200 nM
T-24
  IC50: > 200 nM
ETK-1
  IC50: > 200 nM
SK-PN-DW
  IC50: > 200 nM
EW-1
  IC50: 168 nM
SW684
  IC50: > 200 nM
RERF-LC-MS
  IC50: > 200 nM
NOS-1
  IC50: > 200 nM
NUGC-3
  IC50: > 200 nM
SW756
  IC50: > 200 nM
HuO-3N1
  IC50: 89.1 nM
ACHN
  IC50: 85.3 nM
CAL-54
  IC50: > 200 nM
BCPAP
  IC50: 43.1 nM
KU-19-19
  IC50: > 200 nM
DEL
  IC50: 3.12 nM
EW-18
  IC50: > 200 nM
MKN-45
  IC50: > 200 nM
NCI-H1838
  IC50: > 200 nM
S-117
  IC50: > 200 nM
HEC-1
  IC50: > 200 nM
CP50-MEL-B
  IC50: > 200 nM
DOK
  IC50: > 200 nM
EW-24
  IC50: > 200 nM
NCI-H226
  IC50: > 200 nM
RKO
  IC50: > 200 nM
T98G
  IC50: > 200 nM
DOHH-2
  IC50: 21.6 nM
SNU-C2B
  IC50: 145 nM
NCI-H510A
  IC50: > 200 nM
GCIY
  IC50: > 200 nM
JAR
  IC50: 188 nM
L-428
  IC50: > 200 nM
SH-4
  IC50: > 200 nM
UACC-893
  IC50: > 200 nM
SF-539
  IC50: > 200 nM
Daoy
  IC50: > 200 nM
SW1710
  IC50: > 200 nM
CAPAN-1
  IC50: > 200 nM
TE-11
  IC50: > 200 nM
UACC-62
  IC50: > 200 nM
SW48
  IC50: > 200 nM
LS-513
  IC50: > 200 nM
639-V
  IC50: > 200 nM
HLE
  IC50: > 200 nM
MEL-HO
  IC50: > 200 nM
SK-MEL-1
  IC50: > 200 nM
MZ2-MEL
  IC50: > 200 nM
RMG-I
  IC50: > 200 nM
COLO-679
  IC50: > 200 nM

## O=C(c1cc(Cc2n[nH]c(=O)c3ccccc23)ccc1F)N1CCN(C(=O)C2CC2)CC1 [OLAPARIB]
NCI-H727
  IC50: > 5000 nM
T-24
  IC50: > 5000 nM
ETK-1
  IC50: > 5000 nM
SK-PN-DW
  IC50: > 5000 nM
EW-1
  IC50: > 5000 nM
SW684
  IC50: > 5000 nM
RERF-LC-MS
  IC50: > 5000 nM
NOS-1
  IC50: > 5000 nM
NUGC-3
  IC50: > 5000 nM
SW756
  IC50: > 5000 nM
HuO-3N1
  IC50: > 5000 nM
ACHN
  IC50: > 5000 nM
CAL-54
  IC50: > 5000 nM
BCPAP
  IC50: > 5000 nM
KU-19-19
  IC50: > 5000 nM
DEL
  IC50: > 5000 nM
EW-18
  IC50: > 5000 nM
MKN-45
  IC50: > 5000 nM
NCI-H1838
  IC50: > 5000 nM
S-117
  IC50: > 5000 nM
HEC-1
  IC50: > 5000 nM
CP50-MEL-B
  IC50: > 5000 nM
DOK
  IC50: > 5000 nM
EW-24
  IC50: > 5000 nM
NCI-H226
  IC50: > 5000 nM
RKO
  IC50: > 5000 nM
T98G
  IC50: > 5000 nM
DOHH-2
  IC50: > 5000 nM
SNU-C2B
  IC50: > 5000 nM
NCI-H510A
  IC50: 3830 nM
GCIY
  IC50: > 5000 nM
JAR
  IC50: > 5000 nM
L-428
  IC50: > 5000 nM
SH-4
  IC50: > 5000 nM
UACC-893
  IC50: > 5000 nM
SF-539
  IC50: > 5000 nM
Daoy
  IC50: > 5000 nM
SW1710
  IC50: > 5000 nM
CAPAN-1
  IC50: > 5000 nM
TE-11
  IC50: > 5000 nM
UACC-62
  IC50: > 5000 nM
SW48
  IC50: > 5000 nM
LS-513
  IC50: > 5000 nM
639-V
  IC50: > 5000 nM
HLE
  IC50: > 5000 nM
MEL-HO
  IC50: > 5000 nM
SK-MEL-1
  IC50: > 5000 nM
MZ2-MEL
  IC50: > 5000 nM
RMG-I
  IC50: > 5000 nM
COLO-679
  IC50: > 5000 nM
